This note sets out measurements from ChEMBL document CHEMBL1131368, “Synthesis of novel substituted pyridines as inhibitors of endothelin converting enzyme-1 (ECE-1)” (Bioorg Med Chem Lett, 1998).

In the assay the target is T1, Endothelin-converting enzyme 1 (Homo sapiens, UniProt P42892).
T1 sequence (P42892 whole entry): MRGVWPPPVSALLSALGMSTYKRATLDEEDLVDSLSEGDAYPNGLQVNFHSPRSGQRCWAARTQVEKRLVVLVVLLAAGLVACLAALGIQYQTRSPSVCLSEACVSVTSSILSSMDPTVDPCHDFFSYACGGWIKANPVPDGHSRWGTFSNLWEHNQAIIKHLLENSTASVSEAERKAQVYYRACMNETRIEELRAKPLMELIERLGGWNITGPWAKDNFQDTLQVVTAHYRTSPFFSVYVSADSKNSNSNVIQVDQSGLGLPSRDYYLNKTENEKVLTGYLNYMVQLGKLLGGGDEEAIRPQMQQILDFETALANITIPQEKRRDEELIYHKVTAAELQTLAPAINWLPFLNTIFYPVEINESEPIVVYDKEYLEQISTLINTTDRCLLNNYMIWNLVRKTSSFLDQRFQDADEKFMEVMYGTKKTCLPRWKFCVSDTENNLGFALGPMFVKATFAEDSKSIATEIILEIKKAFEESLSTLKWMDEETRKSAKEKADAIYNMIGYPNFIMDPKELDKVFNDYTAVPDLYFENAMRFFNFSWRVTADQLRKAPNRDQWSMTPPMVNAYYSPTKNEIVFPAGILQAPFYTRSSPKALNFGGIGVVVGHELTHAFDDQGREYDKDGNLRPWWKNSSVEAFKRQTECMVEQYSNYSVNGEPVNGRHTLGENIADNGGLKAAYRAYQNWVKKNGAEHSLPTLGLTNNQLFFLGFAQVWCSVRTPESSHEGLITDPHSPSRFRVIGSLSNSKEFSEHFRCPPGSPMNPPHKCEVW
Briefly: Inhibition of human recombinant Endothelin-converting enzyme 1.

Consider `COc1cc(C(=O)O)nc(-c2cscn2)c1OC`, for which the IC50 was 4300 nM.

`COc1cc(C(=O)O)nc(-c2cccn2C)c1OC`: the 50% inhibitory concentration (IC50) is over 50000 nM.

For the molecule `COc1ccc(C(=O)O)nc1-c1csc(-c2ccccc2)n1`, the IC50 was determined as 1300 nM.

For the molecule `CNc1nc(-c2nc(C(=O)O)cc(OC)c2OC)cs1`, the IC50 was 2600 nM.

In the case of `COc1cc(C(=O)O)nc(-c2csc(C)n2)c1OC`, the IC50 worked out at 1400 nM.

In the case of `COc1ccc(C(=O)O)nc1-c1csc(C)n1`, the IC50 worked out at 1400 nM.

For the molecule `COc1ccc(C(=O)O)nc1-c1csc(-c2ccc(-c3ccccc3)cc2)n1`, the IC50 stood at 10000 nM.

With `COc1cc(C(=O)O)nc(-c2ccsc2)c1OC`, the IC50 is over 50000 nM.

Take `COc1cc(C(=O)O)nc(-c2ccoc2)c1OC`: the 50% inhibitory concentration (IC50) is over 50000 nM.

Consider `COc1ccc(C(=O)O)nc1-c1c[nH]cn1`, for which the half-inhibitory concentration (IC50) worked out at 2400 nM.

Turning to `COc1ccc(C(=O)O)nc1-c1nccs1`, the concentration for half-maximal inhibition (IC50) amounted to 24000 nM.

For the molecule `Cc1nc(-c2cccc(C(=O)O)n2)cs1`, the IC50 amounted to 10000 nM.

With `COc1ccc(C(=O)O)nc1-c1csc(-c2ccc3ccccc3c2)n1`, the IC50 worked out at 1500 nM.

In the case of `COc1ccc(C(=O)O)nc1-c1csc(CCc2ccccc2)n1`, the concentration for half-maximal inhibition (IC50) was 980 nM.

With `COc1ccc(C(=O)O)nc1-c1csc(Cc2ccccc2)n1`, the half-inhibitory concentration (IC50) came to 860 nM.

The term IC50 denotes the concentration needed to halve the response being measured.
